A short description of data set [1]: Metabolic stability in human hepatic cytosol assay. The format is in vitro ADME. The procedure:
Compounds of the invention and the indicated comparative examples were tested for metabolic stability in a cytosol assay in which the compounds were incubated with commercially available human hepatic cytosol fractions and the disappearance of the compound monitored by HPLC or LC/MS. Pooled human liver cytosol fractions are less likely to represent outlier individuals than blood from a single individual and can be stored frozen, unlike whole blood. The cytosol assay thus provides a consistent assay testbed as a guide to the stability of a compound in the in vivo environment, such as when exposed to whole blood.
In short, test compounds (2 μM) are incubated in pooled human liver cytosol (Xenotech LLC Lenexa US, 1 mg/mL protein in 0.1M phosphate buffer, pH 7.4) at 37° centigrade over a one hour period. The incubations are initiated by the addition of 1 mM NADPH co-factor. Timed sub-samples were taken at 0, 20, 40 and 60 minutes and “crash precipitated” by the addition of 3 volumes of ice-cold acetonitrile. The samples were centrifuged at reduced temperature and the supernatants were separated and analyzed by LC-MS-MS.

The target of a further data set is human cathepsin L (Homo sapiens, UniProt P07711). Kind of data set: Cathepsin L Ki. The format is biochemical. Here is the method:
The procedure above with the following amendments is used for the determination of Ki for cathepsin L.
The enzyme is commercially available human cathepsin L (for example Calbiochem). The substrate is H-D-Val-Leu-Lys-AMC available from Bahcem. The assay buffer is 100 mM sodium acetate 1 mM EDTA, pH5.5) The DMSO stock (10 mM in 100% DMSO) is diluted to 10% in assay buffer. Enzyme is prepared at 5 nM concentration in assay buffer plus 1 mM dithiothreitol just before use. 2 ul of 10 mM inhibitor made up in 100% DMSO is dispensed into row A. 10 ul of 50 uM substrate (=1/200 dilution of 10 mM stock in DMSO, diluted in assay buffer)
(§1) Potential inhibitors are screened using the above assay with variable concentrations of test compound. Reactions were initiated by addition of enzyme to buffered solutions of substrate and inhibitor. Ki values were calculated according to equation 1
(§2) [formula] where v0 is the velocity of the reaction, V is the maximal velocity, S is the concentration of substrate with Michaelis constant of KM, and/is the concentration of inhibitor.

The target in data set [2] is T1, human recombinant cathepsin K (Homo sapiens, UniProt P43235).
T1 construct: made in house; host or cells: not fixed: E coli, Pichia or Baculovirus systems named as options
T1 sequence (P43235 115-329): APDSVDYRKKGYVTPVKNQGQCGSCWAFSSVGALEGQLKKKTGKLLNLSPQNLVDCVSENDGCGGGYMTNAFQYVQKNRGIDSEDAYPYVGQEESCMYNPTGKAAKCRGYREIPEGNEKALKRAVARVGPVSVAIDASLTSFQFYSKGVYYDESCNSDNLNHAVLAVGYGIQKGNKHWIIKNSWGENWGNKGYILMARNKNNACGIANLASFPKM
Kind of data set: Determination of cathepsin K proteolytic catalytic activity (Ki). The format is biochemical. Here is the method:
Convenient assays for cathepsin K are carried out using human recombinant enzyme, such as that described in PDB.
The recombinant cathepsin K can be expressed in a variety of commercially available expression systems including E coli, Pichia and Baculovirus systems. The purified enzyme is activated by removal of the prosequence by conventional methods.
Standard assay conditions for the determination of kinetic constants used a fluorogenic peptide substrate, typically H-D-Ala-Leu-Lys-AMC, and were determined in either 100 mM Mes/Tris, pH 7.0 containing 1 mM EDTA and 10 mM 2-mercaptoethanol or 100 mM Na phosphate, imM EDTA, 0.1% PEG4000 pH 6.5 or 100 mM Na acetate, pH 5.5 containing 5 mM EDTA and 20 mM cysteine, in each case optionally with […] as stabiliser. The enzyme concentration used was 5 nM. The stock substrate solution was prepared at 10 mM in DMSO. Screens were carried out at a fixed substrate concentration of 60 μM and detailed kinetic studies with doubling dilutions of substrate from 250 μM. The total DMSO concentration in the assay was kept below 3%. All assays were conducted at ambient temperature. Product fluorescence (excitation at 390 nm, emission at 460 nm) was monitored with a Labsystems Fluoroskan Ascent fluorescent plate reader. Product progress curves were generated over 15 minutes following generation of AMC product.
as §1, §2

Data set [3] has as its target T2, baculovirus-expressed human cathepsin S (Homo sapiens, UniProt P25774).
T2 construct: made in house
Kind of data set: Cathepsin S Ki determination. The format is biochemical. Here is the method: 280 μl/well of 12.5% DMSO are added to rows B-H of two columns of a 96 deep well polypropylene plate. 70 μl/well of substrate is added to row A. 2×250 μl/well of assay buffer (100 mM Na phosphate, 100 mM NaCl, pH 6.5) is added to row A, mixed, and double diluted down the plate to row H. 100 μl/well of assay buffer is added to columns 2-5 and 7-12 of 4 rows of a 96 well V bottom polypropylene plate. 200 μl/well of assay buffer is added to columns 1 and 6. […] Add 90 μl assay buffer containing 1 mM DTT and 2 nM cathepsin S to each well of rows B-H and 180 μl to row A. Mix row A using a multichannel pipette and double dilute to row G. Mix row H and read in the fluorescent spectrophotometer. […] The second test compound is added to column 6 of the top row, the third to column 1 of the second row etc. Add 1 μl of comparator to column 6 of the bottom row. Mix column 1 and double dilute to column 5. Mix column 6 and double dilute to column 10. Using an 8-channel multistepping pipette set to 5×10 μl, distribute 10 μl/well of substrate to the 384 well assay plate. Distribute the first column of the substrate dilution plate to all columns of the assay plate starting at row A. The tip spacing of the multichannel pipette will correctly skip alternate rows. Distribute the second column to all columns starting at row B. Using a 12-channel multistepping pipette set to 4×10 μl, distribute 10 μl/well of inhibitor to the 384 well assay plate. Distribute the first row of the inhibitor dilution plate to alternate rows of the assay plate starting at A1. The tip spacing of the multichannel pipette will correctly skip alternate columns. Similarly, distribute the second, third and fourth rows to alternate rows and columns starting at A2, B1 and B2 respectively. Mix 20 ml assay buffer and 20 μl 1M DTT. Add sufficient cathepsin S to give 2 nM final concentration. Using the a distributor such as a Multidrop 384, add 30 μl/well to all wells of the assay plate and read in fluorescent spectrophotomoter such as an Ascent. Fluorescent readings, (excitation and emission wavelengths 390 nm and 460 nm respectively, set using bandpass filters) reflecting the extent of enzyme cleavage of the fluorescent substrate, notwithstanding the inhibitor, are linear rate fitted for each well. Fitted rates for all wells for each inhibitor are fitted to the competitive inhibition equation using SigmaPlot 2000 to determine V, Km and Ki values. Potential inhibitors are screened using the above assay with variable concentrations of test compound. Reactions were initiated by addition of enzyme to buffered solutions of substrate and inhibitor. Ki values were calculated according to equation 1 [formula] where v0 is the velocity of the reaction, V is the maximal velocity, S is the concentration of substrate with Michaelis constant of KM, and/is the concentration of inhibitor.

For data set [4] the following is noted: typical reference compounds (markers) for the Caco-2 assay; cited from earlier work.
Setting [5] is: 2 μM in pooled human liver cytosol, 1 mg/mL protein, pH 7.4, 37°, 1 mM NADPH.
[6] abbreviates: representative values from specific batches of compound/enzyme/assay occasion.

Like-named read-outs stand apart in the source and are kept apart here.

T2 sequence (P25774 115-331): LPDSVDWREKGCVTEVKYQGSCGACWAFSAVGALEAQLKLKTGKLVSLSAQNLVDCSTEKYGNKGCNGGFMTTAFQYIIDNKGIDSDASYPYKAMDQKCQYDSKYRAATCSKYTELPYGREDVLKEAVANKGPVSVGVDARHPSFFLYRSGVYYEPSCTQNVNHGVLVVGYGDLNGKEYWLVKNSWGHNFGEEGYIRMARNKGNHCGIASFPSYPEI
human cathepsin L, sequence (P07711 114-333): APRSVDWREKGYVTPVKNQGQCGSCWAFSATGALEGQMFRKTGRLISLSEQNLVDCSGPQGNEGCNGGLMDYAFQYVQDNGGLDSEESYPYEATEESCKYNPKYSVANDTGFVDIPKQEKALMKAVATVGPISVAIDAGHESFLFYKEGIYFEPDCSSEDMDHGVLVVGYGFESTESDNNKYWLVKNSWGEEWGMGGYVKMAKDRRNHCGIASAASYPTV

As for `Cc1sc(N2CCN(C)CC2)nc1-c1ccc(C(=O)N[C@@H](CC(C)C)C(=O)N2C[C@H](F)[C@H]3OCC(=O)[C@H]32)cc1` [Comparative Example 3, reference compound], in data set [1] (setting [5]), the half-life at 2 μM is 1.67 to 2.5 h.
With `CC(C)C[C@H](NC(c1ccc(-c2ccc(S(C)(=O)=O)cc2)cc1)C(F)(F)F)C(=O)N1C[C@@H](Cl)[C@H]2OCC(=O)[C@H]21` (stereo in doubt) [Example 13, 6-Chloro-4-{4-methyl-2-[2,2,2-trifluoro-1-(4′-methanesulfonyl-biphenyl-4-yl)-ethylamino]-pentanoyl}-tetrahydro-furo[3,2-b]pyrrol-3-one], the Ki was 1000 to 5000 nM on human cathepsin L (Table 1, class symbols); under 50 nM in data set [2] (Table 1, class symbols); over 10000 nM in data set [3] (Table 1, class symbols).
In the case of `Cc1sc(N2CCN(C)CC2)nc1-c1ccc(C(=O)N[C@@H](CC(C)C)C(=O)N2CC[C@H]3OCC(=O)[C@H]32)cc1` [Comparative Example 2, reference compound], the half-life at 2 μM in data set [1] (setting [5]) came to 1.2 h. For the same compound, in data set [1] (human liver cytosol), the cytosol half life result is given as “a little over an hour”.
For the compound `CN1CCN(c2nc(-c3ccc(C(=O)N[C@H](C(=O)N4C[C@@H](Cl)[C@H]5OCC(=O)[C@H]54)C4CCCCC4)cc3)cs2)CC1` [Example 7, N-[2-((3aS,6R,6aS)-6-Chloro-3-oxo-hexahydro-furo[3,2-b]pyrrole-4-yl)-1-S-cyclohexyl-2-oxo-ethyl]-4-[2-(4-methyl-piperazin-1-yl)-thiazol-4-yl]-benzamide], the Ki at human cathepsin L (Table 1, class symbols) is 1000 to 5000 nM; on human cathepsin L (setting [6]), 1200 nM; in data set [2] (Table 1, class symbols) it was under 50 nM; in data set [2] (setting [6]) it was 4.2 nM; in data set [3] (Table 1, class symbols), 1000 to 5000 nM; in data set [3] (setting [6]), 1700 nM.
Regarding `CC(C)C[C@H](NC(=O)c1ccc(-c2csc(N3CCN(C)CC3)n2)cc1)C(=O)N1C[C@@H](Cl)[C@H]2OCC(=O)[C@H]21` [Example 6, N—[(S)-1-((3aS,6R,6aS)-6-chloro-3-oxo-hexahydro-furo[3,2-b]pyrrole-4-carbonyl)-3-methyl-butyl]-4-[2-(4-methyl-piperazin-1-yl)-thiazol-4-yl]benzamide], the Ki at human cathepsin L (Table 1, class symbols) was 501 to 1000 nM; at human cathepsin L (setting [6]), 890 nM; in data set [2] (Table 1, class symbols), under 50 nM; in data set [2] (setting [6]), 1.5 nM; in data set [3] (Table 1, class symbols), 1000 to 5000 nM; in data set [3] (setting [6]), 4000 nM. Moreover, the t1/2 minutes in data set [1] (setting [5]) is over 5 h. In data set [1] (pooled human liver cytosol, pH 7.4, human liver cytosol, read-out: cytosol half life), the half-life at 2 μM was over 5 h.
Take `CN1CCN(c2nc(-c3ccc(C(=O)N[C@@H](CC(C)(C)F)C(=O)N4C[C@@H](Cl)[C@H]5OCC(=O)[C@H]54)cc3)cs2)CC1` [Example 8, N—[(S)-1-((3aS,6R,6aS)-6-chloro-3-oxo-hexahydro-furo[3,2-b]pyrrole-4-carbonyl)-3-fluoro-3-methyl-butyl]-4-[2-(4-methyl-piperazin-1-yl)-thiazol-4-yl]benzamide]: the Ki at human cathepsin L (Table 1, class symbols) was 1000 to 5000 nM; on human cathepsin L (setting [6]), 2900 nM; in data set [2] (Table 1, class symbols), under 50 nM; in data set [2] (setting [6]), 3.3 nM; in data set [3] (Table 1, class symbols), over 10000 nM; in data set [3] (setting [6]) it was 13000 nM.
On to `OC[C@@H](O)[C@@H](O)[C@H](O)[C@H](O)CO` [Mannitol], for which, in data set [4], the “% absorption in man” value is listed as 16%.
On to `Cc1sc(N2CCN(C)CC2)nc1-c1ccc(C(=O)N[C@@H](CC(C)C)C(=O)N2C[C@@H](Cl)[C@H]3OCC(=O)[C@H]32)cc1` [Example 5, N-[1-(6-chloro-3-oxo-hexahydro-furo[3,2-b]pyrrol-4-carbonyl)-3-methyl-butyl]-4-[5-methyl-2-(4-methyl-piperazin-1-yl)-thiazol-4-yl]-benzamide], for which the Ki at human cathepsin L (Table 1, class symbols) was 501 to 1000 nM; at human cathepsin L (setting [6]) it was 880 nM; in data set [2] (Table 1, class symbols), under 50 nM; in data set [2] (setting [6]), 1.6 nM; in data set [3] (Table 1, class symbols), 5000 to 10000 nM; in data set [3] (setting [6]), 7500 nM. Further, the half-life at 2 μM in data set [1] (setting [5]) was determined as 3.3 h.
As for `CN(Cc1cnc2nc(N)nc(N)c2n1)c1ccc(C(=O)N[C@@H](CCC(=O)O)C(=O)O)cc1` [Methotrexate], in data set [4], the “% absorption in man” value is reported as 20%.
Take `CC(C)C[C@H](NC(=O)c1ccc(-c2csc(N3CCN(C)CC3)n2)cc1)C(=O)N1C[C@H](Cl)[C@H]2OCC(=O)[C@H]21` [Comparative Example 1, reference compound]: the half-life at 2 μM in data set [1] (setting [5]) came out at 0.4 h.
As to `CC(C)C[C@H](NC(=O)c1ccc(-c2csc(N3CCN(C)CC3)n2)c(F)c1)C(=O)N1C[C@@H](Cl)[C@H]2OCC(=O)[C@H]21` [Example 11], the half-life at 2 μM in data set [1] (setting [5]) was 3 h.
On to `N[C@@H](Cc1ccccc1)C(=O)O` [L-Phenylalanine], for which the “% absorption in man” value in data set [4] is 100%.

What is called half-life is the time needed for the level to fall by half in the phase considered. The term Ki denotes the dissociation constant of the complex between target and ligand, obtained from inhibition or displacement.
